# Test results as given in patent US20160002247A1, “8-SUBSTITUTED IMIDAZOPYRIMIDINONE DERIVATIVE HAVING AUTOTAXIN INHIBITORY ACTIVITY” (THE UNIVERSITY OF TOKYO, priority 2013, published 2016).
# Target: T1, Human autotaxin enzyme (Homo sapiens, UniProt Q13822)
# T1 construct: purchased R&D System
# Test: Evaluation of autotaxin inhibitor, Method C (Test Example 3): 18:0 Lyso PC, choline assay, Resorufin fluorescence
# Format: biochemical
# Conditions: Assay Method C (Test Example 3), human autotaxin, 18:0 Lyso PC substrate; read-out: Inhibitory Activity (autotaxin enzyme inhibitory activity, IC50 class)
# Description: (Method C) Evaluation of Autotaxin Inhibitor
# Solution B containing 100 mM Tris-HCl buffer (pH7.5), 150 mM NaCl, 5 mM MgCl2 and 0.05% Triton X-100 was prepared. Human autotaxin enzyme (purchased from R&D System) was diluted with Solution B, and 2.5 μL of which was added to a solution of test compound in DMSO. Furthermore, 2.5 μl of 200 μM 18:0 Lyso PC (purchased from Avanti Polar Lipids) in Solution B was added and allowed to react at room temperature for 2 hours. After completion of the reaction, 15 μL of the coline assay reagent (100 mM Tris-HCl buffer (pH7.5), 5 mM MgCl2, 77 μg/mL choline oxidase, 10 μg/mL peroxidase, 25 μM 10-acetyl-3,7-dihydroxyphenoxazine and excess autotaxin inhibitor) was added and allowed to react at room temperature for 20 minutes. The fluorescent dye Resorufin, which was produced by the reaction, was detected. The fluorescence was detected using ViewLux (PerkinElmer, Inc.) with an excitation wavelength of 531 nm and a fluorescence wavelength of 598 nm.
# The percent inhibition of the test compound was calculated by assuming the sample with no test compound as 0% inhibition and the sample with no enzyme as 100% inhibition, and the percent inhibitions at different concentrations of the test compound were plotted to obtain a concentration-dependent curve.
row,IC50,Structure (SMILES)
1,10 to 100 nM,CCCCCn1c(N2CC=CC2)cc(=O)n2cc(-c3ccc(Cl)cc3)nc12 [Compound 309]
2,10 to 100 nM,CCCCCn1c(-c2ccc(C(=O)NCCS(N)(=O)=O)cc2)cc(=O)n2cc(-c3ccc(Cl)cc3)nc12 [Compound 499]
3,100 to 1000 nM,CCCCCn1c(-c2cccc(N3CCOCC3)c2)cc(=O)n2cc(-c3ccc(Cl)cc3)nc12 [Compound 445]
4,10 to 100 nM,CCCCCn1c(-c2cnc(OC)nc2OC)cc(=O)n2cc(-c3ccc(Cl)cc3)nc12 [Compound 454]
5,100 to 1000 nM,CCCCCn1c(N2CC3CNCC3C2)cc(=O)n2cc(-c3ccc(Cl)cc3)nc12 (stereo not drawn) [Compound 331]
6,10 to 100 nM,CCCCCn1c(-c2cnc(O)nc2)cc(=O)n2cc(-c3ccc(Cl)cc3)nc12 [Compound 463]
7,10 to 100 nM,CCCCCn1c(-c2cnn(CCN3CCOCC3)c2)cc(=O)n2cc(-c3ccc(Cl)cc3)nc12 [Compound 425]
8,< 10 nM,C[C@H](NC(=O)[C@@H]1CCCN1c1cc(=O)n2cc(-c3ccc(Cl)cc3)nc2n1Cc1ccccc1)C(=O)O [Compound 748]
9,100 to 1000 nM,CCCCCn1c(N2CCC[C@H]2C(=O)NCCN2CCOCC2)cc(=O)n2cc(-c3ccc(Cl)cc3)nc12 [Compound 644]
10,100 to 1000 nM,CCCCCn1c(-c2cnccc2OC)cc(=O)n2cc(-c3ccc(Cl)cc3)nc12 [Compound 455]
11,100 to 1000 nM,C[C@H](NC(=O)[C@@H]1CCCN1c1cc(=O)n2cc(-c3ccc(Cl)cc3)nc2n1C)C(=O)O [Compound 771]
12,< 10 nM,CCCCCn1c(OC2CN(CC(=O)O)C2)cc(=O)n2cc(-c3ccc(Cl)cc3)nc12 [Compound 577]
13,10 to 100 nM,CCCCCn1c(C2=CCC(C(=O)O)CC2)cc(=O)n2cc(-c3ccc(Cl)cc3)nc12 (stereo not drawn) [Compound 557]
14,100 to 1000 nM,CCCCCn1c(N2CCC[C@H]2C(=O)N[C@H](C(=O)O)C(c2ccccc2)c2ccccc2)cc(=O)n2cc(-c3ccc(Cl)cc3)nc12 [Compound 727]
15,10 to 100 nM,CCCCCn1c(-c2ccc(C(=O)N3CCC(O)CC3)cc2)cc(=O)n2cc(-c3ccc(Cl)cc3)nc12 [Compound 472]
16,10 to 100 nM,CCCCCn1c(N2CCCC[C@@H]2C(=O)NCCC(=O)O)cc(=O)n2cc(-c3ccc(Cl)cc3)nc12 [Compound 626]
17,100 to 1000 nM,CCCCCn1c(N2CCN(S(=O)(=O)N3CCOCC3)CC2)cc(=O)n2cc(-c3ccc(Cl)cc3)nc12 [Compound 296]
18,10 to 100 nM,CCCCCn1c(O[C@H]2CCN(CCC(=O)OC(C)(C)C)C2)cc(=O)n2cc(-c3ccc(Cl)cc3)nc12 [Compound 578]
19,10 to 100 nM,CCCCCn1c(OC2CN(CC(=O)OC(C)(C)C)C2)cc(=O)n2cc(-c3ccc(Cl)cc3)nc12 [Compound 574]
20,10 to 100 nM,CCCCCn1c(NCc2ccc(C(=O)O)cc2)cc(=O)n2cc(-c3ccc(Cl)cc3)nc12 [Compound 192]
21,10 to 100 nM,Cn1c(N2C[C@H](O)C[C@H]2C(=O)N[C@H](C(=O)O)C(C)(C)C)cc(=O)n2cc(-c3ccc(Cl)cc3)nc12 [Compound 774]
22,10 to 100 nM,CCCCCn1c(N2CCC[C@H]2C(=O)NCCN2CCCC2=O)cc(=O)n2cc(-c3ccc(Cl)cc3)nc12 [Compound 341]
23,10 to 100 nM,CCCCCn1c(OC2CNC2)cc(=O)n2cc(-c3ccc(Cl)cc3)nc12 [Compound 537]
24,100 to 1000 nM,CCCCCn1c(NCC(=O)NCC(=O)O)cc(=O)n2cc(-c3ccc(Cl)cc3)nc12 [Compound 603]
25,100 to 1000 nM,CCCCCn1c(N2CCCC[C@H]2C(=O)O)cc(=O)n2cc(-c3ccc(Cl)cc3)nc12 [Compound 604]
26,100 to 1000 nM,CCCCCn1c(N2CCC[C@@]2(C)C(=O)NCCC(=O)O)cc(=O)n2cc(-c3ccc(Cl)cc3)nc12 [Compound 623]
27,10 to 100 nM,CCCCCn1c(N2CCNC[C@@H]2C(=O)NCC(=O)O)cc(=O)n2cc(-c3ccc(Cl)cc3)nc12 [Compound 666]

row,IC50,Structure (SMILES)
1,100 to 1000 nM,CCCCCn1c(OCC2CCN(C(=O)OC(C)(C)C)C2)cc(=O)n2cc(-c3ccc(Cl)cc3)nc12 (stereo not drawn) [Compound 553]
2,10 to 100 nM,CCCCCn1c(N(CCCC(=O)OCC)C(C)=O)cc(=O)n2cc(-c3ccc(Cl)cc3)nc12 [Compound 564]
3,100 to 1000 nM,CCCCCn1c(N2CCC[C@@H]2CC(=O)O)cc(=O)n2cc(-c3ccc(Cl)cc3)nc12 [Compound 605]
4,10 to 100 nM,CCCCCn1c(N2C[C@H](F)C[C@H]2C(=O)NCCC(=O)O)cc(=O)n2cc(-c3ccc(Cl)cc3)nc12 [Compound 579]
5,100 to 1000 nM,CCCCCn1c(N2CCN(C(=O)OC(C)(C)C)C(C(=O)NCCC(=O)O)C2)cc(=O)n2cc(-c3ccc(Cl)cc3)nc12 (stereo not drawn) [Compound 614]
6,> 1000 nM,CCCCCn1c(C)cc(=O)n2cc(-c3ccc(C(=O)O)cc3)nc12 [Compound 166]
7,100 to 1000 nM,CCCCCn1c(N2CCN(C(=O)N3CCCCC3)CC2)cc(=O)n2cc(-c3ccc(Cl)cc3)nc12 [Compound 291]
8,10 to 100 nM,N#CCCCCn1c(-c2ccc(C(=O)NCCN3CCOCC3)cc2)cc(=O)n2cc(-c3ccc(C(F)(F)F)cc3)nc12 [Compound 376]
9,10 to 100 nM,CCCCCn1c(-c2ccc(C(=O)NCCNC3CCS(=O)(=O)C3)cc2)cc(=O)n2cc(-c3ccc(Cl)cc3)nc12 (stereo not drawn) [Compound 524]
10,< 10 nM,CCCCCn1c(N2CCC[C@H](C(=O)O)C2)cc(=O)n2cc(-c3ccc(Cl)cc3)nc12 [Compound 600]
11,100 to 1000 nM,CCCCCn1c(NCCC(=O)NCCC(=O)O)cc(=O)n2cc(-c3ccc(Cl)cc3)nc12 [Compound 617]
12,100 to 1000 nM,CCCCCn1c(O[C@@H]2CO[C@H]3[C@@H]2OC[C@H]3O)cc(=O)n2cc(-c3ccc(Cl)cc3)nc12 [Compound 544]
13,10 to 100 nM,CCCCCn1c(N2CCNC[C@H]2C(=O)NCCC(=O)O)cc(=O)n2cc(-c3ccc(Cl)cc3)nc12 [Compound 664]
14,> 1000 nM,CCCCCn1c(N2CCC[C@H]2C(=O)NCCCN)cc(=O)n2cc(-c3ccc(Cl)cc3)nc12 [Compound 352]
15,> 1000 nM,CCCCCn1c(N2CCNC[C@H]2C(=O)O)cc(=O)n2cc(-c3ccc(Cl)cc3)nc12 [Compound 660]
16,100 to 1000 nM,CCCCCn1c(N2C[C@H](F)C[C@H]2C(=O)NCCC(=O)OCC)cc(=O)n2cc(-c3ccc(Cl)cc3)nc12 [Compound 591]
17,100 to 1000 nM,CCCCCn1c(-c2ccnc(OC)c2)cc(=O)n2cc(-c3ccc(Cl)cc3)nc12 [Compound 460]
18,10 to 100 nM,CCCCCn1c(N2CCC[C@H]2C(=O)NCCCO)cc(=O)n2cc(-c3ccc(Cl)cc3)nc12 [Compound 339]
19,10 to 100 nM,CCCCCn1c(N2CCC[C@H]2C(=O)N2CCNC(=O)C2)cc(=O)n2cc(-c3ccc(Cl)cc3)nc12 [Compound 697]
20,10 to 100 nM,CCCCCn1c(-c2ccc(CO)cc2)cc(=O)n2cc(-c3ccc(Cl)cc3)nc12 [Compound 394]
21,100 to 1000 nM,CCCCCn1c(N2CCC[C@H]2C(=O)Nc2ccccc2)cc(=O)n2cc(-c3ccc(Cl)cc3)nc12 [Compound 318]
22,10 to 100 nM,CCCCCn1c(-c2ccc3[nH]c(=O)[nH]c3c2)cc(=O)n2cc(-c3ccc(Cl)cc3)nc12 [Compound 448]
23,10 to 100 nM,CCCCCn1c(-c2ccc3ncsc3c2)cc(=O)n2cc(-c3ccc(Cl)cc3)nc12 [Compound 450]
24,10 to 100 nM,CCCCCn1c(N2CCC[C@@H](C(=O)O)C2)cc(=O)n2cc(-c3ccc(Cl)cc3)nc12 [Compound 608]
25,< 10 nM,CCCCCn1c(N2CCC[C@H]2C(=O)N[C@@H](CC(C)C)C(=O)O)cc(=O)n2cc(-c3ccc(Cl)cc3)nc12 [Compound 733]
26,10 to 100 nM,CCCCCn1c(N2CCC(C(=O)N3CCCC3=O)CC2)cc(=O)n2cc(-c3ccc(Cl)cc3)nc12 [Compound 299]
27,10 to 100 nM,CCCCCn1c(-c2ccc(C(=O)NCc3ccco3)cc2)cc(=O)n2cc(-c3ccc(Cl)cc3)nc12 [Compound 506]

# Same assay, conditions: Assay Method C, human autotaxin, 18:0 Lyso PC substrate; read-out: Inhibitory Activity
row,IC50,Structure (SMILES)
1,10 to 100 nM,C[C@H]1CCCCN1C(=O)Cc1cn(CCCC(F)(F)F)c2nc(-c3ccc(Cl)cc3)cn2c1=O [Compound 867]
2,> 1000 nM,CC(C)(O)CNC(=O)Cc1cn(CCCC(F)(F)F)c2nc(-c3ccc(Cl)cc3)cn2c1=O [Compound 857]
3,> 1000 nM,O=C1CN(C(=O)Cc2cn(CCCC(F)(F)F)c3nc(-c4ccc(Cl)cc4)cn3c2=O)CCN1 [Compound 847]
4,> 1000 nM,CCCCCn1c(N2CCC[C@@H](C)C2)cc(=O)n2cc(-c3ccc(Cl)cc3)nc12 [Compound 811]
5,> 1000 nM,NC(=O)C1CCN(C(=O)Cc2cn(CCCC(F)(F)F)c3nc(-c4ccc(Cl)cc4)cn3c2=O)CC1 [Compound 837]
6,< 10 nM,CCCCCn1c(-c2ccc(C(=O)NCCNCCO)cc2)cc(=O)n2cc(-c3ccc(Cl)cc3)nc12 [Compound 817]
7,> 1000 nM,CCOC(=O)c1cccc(Cc2cn(CC3CC3)c3nc(-c4ccc(Cl)cc4)cn3c2=O)c1 [Compound 822]
8,> 1000 nM,N#CCCCNC(=O)Cc1cn(CCCC(F)(F)F)c2nc(-c3ccc(Cl)cc3)cn2c1=O [Compound 832]
9,> 1000 nM,N#CC(NC(=O)Cc1cn(CCCC(F)(F)F)c2nc(-c3ccc(Cl)cc3)cn2c1=O)C(N)=O (stereo not drawn) [Compound 859]
10,> 1000 nM,O=C(Cc1cn(CCCC(F)(F)F)c2nc(-c3ccc(Cl)cc3)cn2c1=O)N(CCO)CCO [Compound 833]
11,> 1000 nM,NC(=O)CNC(=O)Cc1cn(CCCC(F)(F)F)c2nc(-c3ccc(Cl)cc3)cn2c1=O [Compound 841]
12,100 to 1000 nM,CONC(=O)Cc1cn(CCCC(F)(F)F)c2nc(-c3ccc(Cl)cc3)cn2c1=O [Compound 845]
